Drawing on PubChem BioAssay (NCI), this text covers TGI for 13 molecules.

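Where inhibition never reached the appropriate level, the endpoint shown equals the highest concentration tested. Otherwise, values were interpolated linearly from a five-concentration, 48-hour dose response in 96-well plates. At the TGI there is no net growth.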

Test systems include NCI-H226 lung; HL-60(TB) leukemia; OVCAR-8 ovarian; SNB-75 CNS; OVCAR-3 ovarian; OVCAR-4 ovarian; HCT-116 colon; SNB-19 CNS; NCI-H460 lung; HOP-62 NSCLC; SK-MEL-2 melanoma; PC-3 prostate.
Holding throughout (assay): growth of human tumour cells (NCI), 48 h

On to `C/C(=N/O)c1sc(-c2nc(C)c(/C(C)=N\O)s2)nc1C`, for which the TGI in the assay on NCI-H226 lung, with HL-60(TB) leukemia, in the assay on OVCAR-8 ovarian, with SNB-75 CNS, in the assay on OVCAR-3 ovarian and in the assay with OVCAR-4 ovarian was > 100 µM throughout. For the same molecule, the TGI in the assay with HCT-116 colon and with SNB-19 CNS was > 100 µM each time.
Turning to `NC(N)=NS(=O)(=O)c1ccc(NC(=O)c2cccc3c(N)c4ccccc4nc23)cc1`, the TGI in the assay with NCI-H226 lung, in the assay on NCI-H460 lung, with HOP-62 NSCLC, with OVCAR-8 ovarian, in the assay on SNB-75 CNS and with OVCAR-3 ovarian was > 100 µM each time. For the same molecule, the TGI with OVCAR-4 ovarian, in the assay with HCT-116 colon, with SNB-19 CNS and in the assay with SK-MEL-2 melanoma was > 100 µM each time.
As to `Cc1nc2c3c(ccc2[nH]c1=O)C(=O)c1ccccc1C3=O`, the TGI was > 100 µM with NCI-H226 lung; > 100 µM with HL-60(TB) leukemia; > 100 µM in the assay with NCI-H460 lung; > 100 µM with HOP-62 NSCLC; > 100 µM with OVCAR-8 ovarian; 87 µM in the assay on SNB-75 CNS. Also, the TGI in the assay on OVCAR-3 ovarian, in the assay with OVCAR-4 ovarian, in the assay on HCT-116 colon and with SNB-19 CNS was > 100 µM throughout.
In the case of `CC(C)c1ccc(/C=C/c2cc(C(=O)NNC(=O)NC3CCCCC3)nc(=S)[nH]2)cc1`, the TGI in the assay with NCI-H226 lung, with NCI-H460 lung, in the assay with HOP-62 NSCLC, in the assay with OVCAR-8 ovarian, in the assay with SNB-75 CNS and in the assay with OVCAR-3 ovarian was > 100 µM in each case. Moreover, the TGI in the assay on OVCAR-4 ovarian, in the assay on HCT-116 colon and with SNB-19 CNS was > 100 µM each time.
Turning to `COC(=O)C(=O)C(/C(=N/N)C(=O)Nc1ccccc1C(N)=O)c1nc2ccc([N+](=O)[O-])cc2[nH]c1=O` (stereo not given), the TGI in the assay on NCI-H226 lung, with HL-60(TB) leukemia, with NCI-H460 lung, with HOP-62 NSCLC, in the assay with OVCAR-8 ovarian and in the assay on OVCAR-3 ovarian was > 100 µM throughout. For the same molecule, the TGI in the assay with OVCAR-4 ovarian, in the assay on HCT-116 colon, in the assay with SNB-19 CNS and with SK-MEL-2 melanoma was > 100 µM throughout.
Regarding `CC1=C(C(=O)CC(=O)C(=O)Nc2ccc(C)c(C)c2)Sc2ccccc2N1`, the TGI with NCI-H226 lung, with NCI-H460 lung, in the assay on HOP-62 NSCLC, in the assay on OVCAR-8 ovarian, with SNB-75 CNS and in the assay on OVCAR-3 ovarian was > 100 µM throughout. Further, the TGI with OVCAR-4 ovarian, with HCT-116 colon and with SNB-19 CNS was > 100 µM throughout.
Turning to `CCN(CC)Cc1cc(Nc2ccnc3ccc4nn(C)nc4c23)ccc1O`, the TGI in the assay on NCI-H226 lung is 41.7 µM; with HL-60(TB) leukemia it was > 100 µM; in the assay with NCI-H460 lung it was 22.5 µM; with HOP-62 NSCLC it was 36.8 µM; with OVCAR-8 ovarian, 50.7 µM; in the assay on SNB-75 CNS, 26.1 µM. The TGI in the assay on OVCAR-3 ovarian was 68 µM; in the assay on OVCAR-4 ovarian it was 37 µM; in the assay on HCT-116 colon, 21.5 µM; with SNB-19 CNS it was > 100 µM.
For the molecule `Cc1ccc(Sc2ccccc2N)cc1`, the TGI in the assay on NCI-H226 lung was 66.4 µM; in the assay with HL-60(TB) leukemia, 49.6 µM; with NCI-H460 lung, > 100 µM; in the assay on HOP-62 NSCLC, 29.6 µM; in the assay on OVCAR-8 ovarian it was > 100 µM; in the assay with SNB-75 CNS, > 100 µM. The TGI with OVCAR-3 ovarian, in the assay with OVCAR-4 ovarian, in the assay with HCT-116 colon, in the assay with SNB-19 CNS and in the assay with SK-MEL-2 melanoma was > 100 µM in each case.
Turning to `O=C(Cc1nc2ccc([N+](=O)[O-])cc2[nH]c1=O)C(=O)Nc1ccccc1[N+](=O)[O-]`, the TGI in the assay with NCI-H226 lung, with HL-60(TB) leukemia, in the assay on NCI-H460 lung, in the assay with SNB-75 CNS, in the assay with OVCAR-3 ovarian and in the assay with OVCAR-4 ovarian was > 100 µM each time. In addition, the TGI in the assay with HCT-116 colon, in the assay on SNB-19 CNS and in the assay with SK-MEL-2 melanoma was > 100 µM each time.
For `COc1ccc2c(c1OC)C(=O)N/C2=C\c1c(CCN(C)C)cc2c(c1OC)OCO2`, the TGI in the assay with NCI-H226 lung, with HL-60(TB) leukemia, with NCI-H460 lung, in the assay on HOP-62 NSCLC, in the assay on OVCAR-8 ovarian and with PC-3 prostate was > 100 µM throughout. In addition, the TGI with SNB-75 CNS, with OVCAR-3 ovarian, in the assay with OVCAR-4 ovarian, with HCT-116 colon and with SNB-19 CNS was > 100 µM each time.
As to `COc1ccc(/C=C2\CCC(CCN3CCOCC3)C2=O)cc1` (stereo not given), the TGI with NCI-H226 lung, with HL-60(TB) leukemia, with NCI-H460 lung, with HOP-62 NSCLC, in the assay with OVCAR-8 ovarian and with SNB-75 CNS was > 100 µM in each case. Further, the TGI with OVCAR-3 ovarian, with OVCAR-4 ovarian, with HCT-116 colon, with SNB-19 CNS and with SK-MEL-2 melanoma was > 100 µM in each case.
Consider `COc1cc(C2c3cc4c(cc3OC(NCCO)C2C)OCO4)cc(OC)c1O` (stereo not given), for which the TGI in the assay on NCI-H226 lung is > 100 µM; in the assay with OVCAR-8 ovarian it was > 100 µM; in the assay with PC-3 prostate, > 100 µM; in the assay with SNB-75 CNS, 77.3 µM; in the assay on OVCAR-3 ovarian, > 100 µM; with OVCAR-4 ovarian, > 100 µM. For the same molecule, the TGI in the assay with HCT-116 colon was > 100 µM; with SNB-19 CNS it was > 100 µM; in the assay with SK-MEL-2 melanoma, 36.9 µM.
Turning to `O=C(O)c1ccc([C@@H]2C(=O)N(O)[C@@H]3C=CC[C@@H]32)cc1`, the TGI with NCI-H226 lung, with HL-60(TB) leukemia, with HOP-62 NSCLC, in the assay on OVCAR-8 ovarian, in the assay on SNB-75 CNS and in the assay on OVCAR-3 ovarian was > 100 µM throughout. Moreover, the TGI in the assay on SNB-19 CNS and in the assay on SK-MEL-2 melanoma was > 100 µM each time.
